The values that follow come from US20110293720A1, “PROGESTIN-CONTAINING DRUG DELIVERY SYSTEM” (BAYER SCHERING PHARMA AKTIENGESELLSCHAFT, priority 2008, published 2011).

The series in a line: Particle size distribution (d50/d70/d90, volume distribution, e.g. laser diffraction). Type of series: physicochemical. The settings on record: micronized active ingredient before coating. The source says: When used herein, the term “d90 particle size” is intended to mean that the particle size distribution is so that at least 90% of the particles have a particle diameter of less than the specified value, calculated from the volume distribution curve under the presumption of spherical particles. In a similar way, the term “d50 particle size” is intended to mean that the particle size distribution is so that at least 50% of the particles have a particle diameter of less than the specified value, calculated from the volume distribution curve under the presumption of spherical particles.
Therefore, it is important to note that whenever the terms “particle size”, “particle size distribution”, “particle diameter”, “d90”, “d50”, etc., are used herein it should be understood that the specific values or ranges used in connection therewith are always meant to be determined from the volume distribution curve under the presumption of spherical particles. The particle size distribution may be determined by various techniques, e.g. laser diffraction, and will be known to the person skilled in the art. […] The particle size distribution of the particles comprising the progestin and the protective agent, when incorporated in the wafer, may be determined by dissolving the film forming matrix, separation of the protected particles, and drying the protected particles. […]

`C[C@]12CCC(=O)C=C1[C@@H]1C[C@@H]1[C@H]1[C@@H]3[C@@H]4C[C@@H]4[C@@]4(CCC(=O)O4)[C@@]3(C)CC[C@@H]12` [drospirenone] returned a d50 of 2.2 μm and a d90 of 4.8 μm.
